Assay results taken from ChEMBL document CHEMBL4004788, “Cyclin-Dependent Kinase (CDK) Inhibitors: Structure-Activity Relationships and Insights into the CDK-2 Selectivity of 6-Substituted 2-Arylaminopurines” (J Med Chem, 2017).
pIC50: −log10 of the molar value. The source made the active and inactive calls. No cut-off for these calls is given here.

Legend:
Skut1B [1] = assay: Growth inhibition of Rb-proficient human SK-UT-1B cells after 120 hrs by SRB assay; assay type: functional
MDA-MB-231 [2] = assay: Growth inhibition of Rb-proficient human MDA-MB-231 cells after 120 hrs by SRB assay; assay type: functional
Calu-6 [3] = assay: Growth inhibition of Rb-proficient human Calu6 cells after 120 hrs by SRB assay; assay type: functional
A-375 [4] = assay: Growth inhibition of Rb-proficient human A375 cells after 120 hrs by SRB assay; assay type: functional
SJSA-1 [5] = assay: Growth inhibition of Rb-proficient human SJSA1 cells after 120 hrs by SRB assay; assay type: functional
SJSA-1 [6] = assay: Growth inhibition of Rb-proficient human SJSA1 cells at 30 uM after 120 hrs by SRB assay; assay type: functional, cell-based
A-375 [7] = assay: Growth inhibition of Rb-proficient human A375 cells at 30 uM after 120 hrs by SRB assay; assay type: functional, cell-based
Skut1B [8] = assay: Growth inhibition of Rb-proficient human SK-UT-1B cells at 30 uM after 120 hrs by SRB assay; assay type: functional, cell-based
Calu-6 [9] = assay: Growth inhibition of Rb-proficient human Calu6 cells at 30 uM after 120 hrs by SRB assay; assay type: functional, cell-based
MDA-MB-231 [10] = assay: Growth inhibition of Rb-proficient human MDA-MB-231 cells at 30 uM after 120 hrs by SRB assay; assay type: functional, cell-based
[11] = target: Cyclin-dependent kinase 2 (Homo sapiens, UniProt P24941)
Description: Inhibition of CDK2 (unknown origin)

Homo sapiens = species on record: Homo sapiens; assay: Inhibition of Cdk4/Cyclin D (unknown origin) relative to untreated control; conditions: concentration not given here
[12] = Chemical stability of the compound; assay type: physicochemical

Structure (SMILES) | growth inhibition (GI) (Skut1B [1]) | growth inhibition (GI) (MDA-MB-231 [2]) | growth inhibition (GI) (Calu-6 [3]) | growth inhibition (GI) (A-375 [4]) | growth inhibition (GI) (SJSA-1 [5]) | other results
NS(=O)(=O)c1ccc(Nc2nc(OCC3CCCCC3)c3cc[nH]c3n2)cc1 | Dose-dependent effect | Dose-dependent effect | Dose-dependent effect | Dose-dependent effect | Dose-dependent effect | –
NS(=O)(=O)c1ccc(Nc2nc(-c3cccc(-c4ccccc4)c3)c3nc[nH]c3n2)cc1 | – | – | – | – | – | growth inhibition (GI) (SJSA-1 [6]): inactive; growth inhibition (GI) (A-375 [7]): inactive; growth inhibition (GI) (Skut1B [8]): inactive; growth inhibition (GI) (Calu-6 [9]): inactive; growth inhibition (GI) (MDA-MB-231 [10]): inactive
CCC(C)Oc1nc(N)nc2[nH]cnc12 (centres undefined) | – | – | – | – | – | pIC50 [11]: 4.31
Nc1nc(OCC2CCCCC2)c2cn[nH]c2n1 | – | – | – | – | – | inhibition (Homo sapiens): 0%
NS(=O)(=O)c1ccc(Nc2nc(OCC3CCCCC3)c3nc[nH]c3n2)cc1 | Active | Active | Active | Active | Active | –
NS(=O)(=O)c1ccc(Nc2nc(OCC3CCCCC3)c3cn[nH]c3n2)cc1 | Dose-dependent effect | Dose-dependent effect | Dose-dependent effect | Dose-dependent effect | Dose-dependent effect | –
CC[C@@H](C)Oc1nc(Nc2ccc(S(N)(=O)=O)cc2)nc(N)c1C=O | – | – | – | – | – | pIC50 [11]: 9.10
COc1nc(N)nc2nc[nH]c12 [METHYLGUANINE] | – | – | – | – | – | Stability [12]: Unstable
